Data on 9 compounds can be found in patent US20080293758A1, “Combination of a Steroid Sulfatase Inhibitor and an Ascomycin” (Novartis AG, priority 2005, published 2008).

SMILES strings stand for the structures. Where “and” joins values, the source holds several entries; their conditions need not be identical. Equal values may be shown once.

Data set [1] deals with T1, steroid sulfatase in human cadaver skin homogenate (Homo sapiens, UniProt P08842).
T1 construct: Frozen specimens of human cadaver skin (about 100 mg per sample) are minced into small pieces; from tissue; host or cells: human cadaver skin, minced and suspended in Tris buffer with 0.1% Triton X-100
T1 sequence (P08842 22-583): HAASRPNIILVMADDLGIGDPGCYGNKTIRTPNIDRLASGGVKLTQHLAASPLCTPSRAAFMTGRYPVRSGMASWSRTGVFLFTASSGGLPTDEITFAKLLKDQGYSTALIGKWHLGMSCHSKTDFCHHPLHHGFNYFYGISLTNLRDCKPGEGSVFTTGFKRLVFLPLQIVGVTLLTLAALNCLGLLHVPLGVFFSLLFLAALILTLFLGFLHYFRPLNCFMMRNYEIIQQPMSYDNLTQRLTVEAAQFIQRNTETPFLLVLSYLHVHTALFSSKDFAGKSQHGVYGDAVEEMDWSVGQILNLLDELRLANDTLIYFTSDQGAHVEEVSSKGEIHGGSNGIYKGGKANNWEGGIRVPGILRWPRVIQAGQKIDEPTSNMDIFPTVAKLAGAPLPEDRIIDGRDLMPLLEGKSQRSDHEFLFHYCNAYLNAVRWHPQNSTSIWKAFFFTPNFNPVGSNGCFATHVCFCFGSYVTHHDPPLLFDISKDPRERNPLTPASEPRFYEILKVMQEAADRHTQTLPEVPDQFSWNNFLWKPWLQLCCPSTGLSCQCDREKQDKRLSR
Description: Assay Using Human Skin Homogenate (DHEAS cleavage). Type of data set: biochemical. The conditions noted are these: 18 hrs at 37° C. The method, then:
Frozen specimens of human cadaver skin (about 100 mg per sample) are minced into small pieces (about 1×1 mm) using sharp scissors. The pieces obtained are suspended in ten volumes (w/w) of buffer (20 mM Tris-HCl, pH 7.5), containing 0.1% Triton X-100. Test compounds (e.g. compounds of the present invention) are added at graded concentrations from stock solutions in ethanol or DMSO. Second, DHEAS as the substrate is added ([…] [^3H]DHEAS, specific activity: about 60 Ci/mmol, and 20 μM unlabeled DHEAS). Samples are incubated for 18 hrs at 37° C. At the end of the incubation period, 50 μl of 1 M Tris, pH 10.4 and 3 ml of toluene are added. A 1-ml aliquot of the organic phase is removed and subjected to liquid scintillation counting. The determined dpm-values in the aliquots are converted to nmol of DHEA cleaved per g of skin per hour.

Data set [2] relates to irritant contact dermatitis elicited with tetradecanoylphorbol-13-acetate (TPA) on mouse ears. As to the kind of experiment: Anti-Inflammatory Test System (TPA-elicited irritant contact dermatitis, auricular weights). Type of data set: in vivo, mice, strain NMRI. Conditions: topical 10 μl, 6 hours after TPA. On the procedure:
The test sites on the inner surface of the right external ears of mice, e.g. strain NMRI, (8 per group) are treated with 10 μl of the dissolved test compound or with the vehicle (a 4:4:2 mixture of ethanol/acetone/dimethylacetamide) alone. The test compounds are applied alone or in combination at concentrations shown in the TEST RESULT TABLE. Thirty minutes after the treatment irritant contact dermatitis is elicitated at the treated auricular sites with 10 μl 0.005% tetradecanoylphorbol-13-acetate (TPA).
Skin inflammation is assessed 6 hours after the elicitation by determination of the auricular weights, as a measure of inflammatory swelling. The animals are killed and both ears are cut off and weighed. Inhibitory activity of test compounds is calculated from differences in right and left ears (internal controls) in mice treated with the test compounds compared with animals treated with the vehicle only. Results obtained are as set out in TEST RESULT TABLE below:
In the TEST RESULT TABLE the concentrations of the compounds (in bold) used are indicated in micromol/litre. The values given in the TEST RESULT TABLE (in regular letters) are the inhibition in % determined according to the ANTI-INFLAMMATORY TEST SYSTEM used.

For data set [3], the target named is T2, purified human steroid sulfatase (Homo sapiens, UniProt P08842).
T2 construct: Human placenta is obtained freshly after delivery and stripped of membranes and connective tissues; from tissue; host or cells: human placenta (microsomes, Triton X-100 extract, hydroxy apatite / concanavalin A sepharose / blue sepharose chromatography)
T2 sequence (P08842 22-583): T1 sequence (P08842 22-583)
Description: Assay of Human Steroid Sulfatase (4-methylumbelliferyl sulfate cleavage). Type of data set: biochemical. Conditions: reference compound, determined in parallel. The method, then: For storage, the material is frozen at −70° C.
The activity is recovered in the flow-through.
Plates are incubated at 37° C. for 1 hour.
Relative IC50 values are defined as follows: […]

In data set [1], `NC(=O)c1ccc(C(F)(F)F)cc1N1CCC(CC(=O)NS(=O)(=O)c2cc(Cl)cc(Cl)c2)CC1` [Example 249] came in with an IC50 of 30 to 270 nM.

`NC(=O)c1ccc(C(F)(F)F)cc1N1CCC(CC(=O)NS(=O)(=O)c2cccc(Cl)c2Cl)CC1` [Example 248] came in with an IC50 in data set [1] of 30 to 270 nM.

On to `CC[C@@H]1/C=C(\C)C[C@H](C)C[C@H](OC)[C@H]2O[C@@](O)(C(=O)C(=O)N3CCCC[C@H]3C(=O)O[C@H](/C(C)=C/[C@@H]3CC[C@H](Cl)[C@H](OC)C3)[C@H](C)[C@@H](O)CC1=O)[C@H](C)C[C@@H]2OC` [pimecrolimus, {[1E-(1R,3R,4S)]1R,9S,12S,13R,14S,17R,18E,21S,23S,24R,25S,27R}-12-[2-(4-chloro-3-methoxycyclohexyl)-1-methylvinyl]-17-ethyl-1,14-dihydroxy-23,25-dimethoxy-13,19,21,27-tetramethyl-11,28,dioxa-4-azatricyclo[22.3.1.0(4,9)]octacos-18-ene-2,3,10,16-tetraone], for which the inhibition in % is 15% in data set [2] (pimecrolimus 0.1, example 217 or 218 0 micromol/litre); 29% in data set [2] (pimecrolimus 0.3, example 217 or 218 0 micromol/litre); 30% in data set [2] (pimecrolimus 1.0, example 217 or 218 0 micromol/litre); 31% in data set [2] (pimecrolimus 3.0, example 217 or 218 0 micromol/litre); 42% in data set [2] (pimecrolimus 10, example 217 or 218 0 micromol/litre).

As for `O=C(NS(=O)(=O)c1cc(C(F)(F)F)cc(C(F)(F)F)c1)C1C2CCCCC1CN(C(=O)CC1CCCC1)C2` (centres unmarked) [Example 208], the IC50 in data set [1] was 30 to 270 nM.

For the compound `CC(C)(C)OC(=O)N1CC2CCCCC(C1)C2C(=O)NS(=O)(=O)c1cc(C(F)(F)F)cc(C(F)(F)F)c1` (single isomer, unassigned) [Example 217, 10-(3,5-bis-trifluoromethyl-benzenesulfonylaminocarbonyl)-8-aza-bicyclo[4.3.1]decane-8-carboxylic acid tert-butyl ester], the IC50 in data set [1] was 30 to 270 nM and 270 nM.

In the case of `CC(C)(C)OC(=O)N1CC2CCCCC(C1)C2C(=O)NS(=O)(=O)c1cc(C(F)(F)F)cc(C(F)(F)F)c1` (centres unmarked) [Example 218], in data set [1], the IC50 is 30 to 270 nM and 270 nM.

In data set [3], `C[C@]12CC[C@@H]3c4ccc(OS(N)(=O)=O)cc4CC[C@H]3[C@@H]1CCC2=O` [estrone sulfamate, estrone 3-O-sulfamate] returned an IC50 of approximately 60 nM.

Compound `NC(=O)c1ccc(C(F)(F)F)cc1N1CCC(CS(=O)(=O)NC(=O)c2cc(C(F)(F)F)cc(C(F)(F)F)c2)CC1` [Example 379] displayed a melting point of 268 to 273 °C. Besides, in data set [1], the IC50 fell in the range of 30 to 270 nM.

In the case of `Cc1c(Cl)cccc1S(=O)(=O)NC(=O)CC1CCN(c2cc(C(F)(F)F)ccc2C(N)=O)CC1` [Example 251], in data set [1], the IC50 lay in the range of 30 to 270 nM.

By IC50 is commonly meant the point on the concentration scale where inhibition reaches its midpoint. As a reminder, the melting point is the temperature of the solid-liquid transition.
